The record followed here is article PMC9979339 (ACS Omega, 2023).

The term IC50 denotes the midpoint of a concentration-inhibition curve. A word on the inhibition: it is the drop in the measured response relative to a control, in per cent.

Entries after “also recorded” stand apart in the source; their conditions may differ.

Assay [1] can be described thus: DPPH free radical scavenging assay. To be noted: for % DPPH scavenging mean ± SEM: n = 3; for IC50: read-out: IC50 DPPH scavenging. Type of assay: biochemical. For orientation: The DPPH test is a chemical assay of radical scavenging.
A further assay can be described thus: ABTS scavenging assay. Type of assay: biochemical. The note with it: for % ABTS scavenging mean ± SEM: n = 3; for IC50: read-out: IC50 ABTS scavenging.
Assay [2] concerns the target electric eel acetylcholinesterase (type-VI-S) (Electrophorus electricus, UniProt O42275). Nature of the assay: AChE inhibition, Ellman's colorimetric method. Type of assay: biochemical. To be noted: for IC50: IC50 AChE inhibition, in vitro; for inhibition at 31.25 µM: read-out: % AChE inhibition mean ± SEM, 31.25 μM, n = 3; for inhibition at 62.5 µM: read-out: % AChE inhibition mean ± SEM, 62.5 μM, n = 3; for inhibition at 125 µM: read-out: % AChE inhibition mean ± SEM, 125 μM, n = 3; for inhibition at 250 µM: read-out: % AChE inhibition mean ± SEM, 250 μM, n = 3; for inhibition at 500 µM: read-out: % AChE inhibition mean ± SEM, 500 μM, n = 3; for inhibition at 1000 µM: read-out: % AChE inhibition mean ± SEM, 1000 μM, n = 3. On the technique in general: In Ellman's method for cholinesterases, released thiocholine reacts with DTNB.

Assay [3] concerns the target equine butyrylcholinesterase (Equus caballus, UniProt P81908). The assay can be described thus: BuChE inhibition, Ellman's colorimetric method. To be noted: for IC50: IC50 BuChE inhibition, in vitro; for inhibition at 31.25 µM / inhibition at 62.5 µM / inhibition at 125 µM / inhibition at 250 µM / inhibition at 500 µM / inhibition at 1000 µM: read-out: % BuChE inhibition mean ± SEM. Type of assay: biochemical.

Assay [4] has as its system scopolamine-induced memory impairment in mice. Nature of the assay: Y-maze spontaneous alternation, scopolamine-induced amnesia. Format: in vivo.
Assay [5] has the same test system. The assay can be described thus: Novel object recognition test. Type of assay: in vivo.
Where [6] appears, read: 30 mg/kg plus scopolamine 1 mg/kg.
Setting [7] is: 1, 10 and 30 mg/kg plus scopolamine 1 mg/kg.
[8] abbreviates: 10 and 30 mg/kg plus scopolamine 1 mg/kg.

equine butyrylcholinesterase, sequence (P81908 whole entry): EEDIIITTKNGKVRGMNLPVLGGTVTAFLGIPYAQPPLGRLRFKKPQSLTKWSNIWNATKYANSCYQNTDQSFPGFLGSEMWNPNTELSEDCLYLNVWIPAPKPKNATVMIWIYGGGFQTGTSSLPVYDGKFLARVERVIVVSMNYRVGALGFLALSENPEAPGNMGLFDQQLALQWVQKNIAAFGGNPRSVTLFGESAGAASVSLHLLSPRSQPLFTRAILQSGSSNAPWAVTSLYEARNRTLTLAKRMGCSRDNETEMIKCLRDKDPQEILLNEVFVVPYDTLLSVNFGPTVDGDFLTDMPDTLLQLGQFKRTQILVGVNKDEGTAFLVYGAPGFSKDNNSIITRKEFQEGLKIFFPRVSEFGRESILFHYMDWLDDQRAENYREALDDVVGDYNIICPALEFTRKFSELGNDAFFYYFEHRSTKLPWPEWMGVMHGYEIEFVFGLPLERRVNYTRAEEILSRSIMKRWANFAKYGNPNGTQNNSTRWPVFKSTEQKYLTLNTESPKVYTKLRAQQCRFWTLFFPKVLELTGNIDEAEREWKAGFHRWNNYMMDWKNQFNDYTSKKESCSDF
electric eel acetylcholinesterase (type-VI-S), sequence (O42275 24-633): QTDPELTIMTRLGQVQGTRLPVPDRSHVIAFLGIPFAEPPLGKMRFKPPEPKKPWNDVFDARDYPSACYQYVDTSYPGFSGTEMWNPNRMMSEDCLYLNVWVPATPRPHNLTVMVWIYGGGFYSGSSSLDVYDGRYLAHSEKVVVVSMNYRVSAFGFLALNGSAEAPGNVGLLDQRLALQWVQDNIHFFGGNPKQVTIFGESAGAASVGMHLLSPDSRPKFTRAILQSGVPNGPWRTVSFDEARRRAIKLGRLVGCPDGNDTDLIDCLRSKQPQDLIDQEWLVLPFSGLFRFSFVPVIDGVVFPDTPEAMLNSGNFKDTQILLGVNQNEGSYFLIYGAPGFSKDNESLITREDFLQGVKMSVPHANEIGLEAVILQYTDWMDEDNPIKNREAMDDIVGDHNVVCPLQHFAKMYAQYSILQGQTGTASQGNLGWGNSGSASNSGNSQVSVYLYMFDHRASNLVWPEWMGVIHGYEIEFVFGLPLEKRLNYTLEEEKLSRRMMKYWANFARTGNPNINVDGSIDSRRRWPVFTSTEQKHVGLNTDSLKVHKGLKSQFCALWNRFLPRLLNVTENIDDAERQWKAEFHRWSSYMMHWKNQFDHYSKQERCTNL

For `O=C1O[C@H]([C@@H](O)CO)C(O)=C1O` [ascorbic acid, reference compound], the “% DPPH scavenging mean ± SEM” value in assay [1] (31.25 μM) came out at 29.20 ± 1.03%; in assay [1] (62.5 μM) it was 47.65 ± 0.2a %; in assay [1] (125 μM), 52.56 ± 0.69%; in assay [1] (250 μM), 65.19 ± 0.29%; in assay [1] (500 μM), 74.44 ± 0.48%; in assay [1] (1000 μM), 85.08 ± 0.32%. In addition, the half-inhibitory concentration (IC50) in assay [1] was determined as 61 µM; in “ABTS scavenging assay”, 125 µM. Further, the “% ABTS scavenging mean ± SEM” value was 35.27 ± 0.67% in the assay “ABTS scavenging assay” (31.25 μM); 44.58 ± 1.11% in the assay “ABTS scavenging assay” (62.5 μM); 51.89 ± 0.59% in the assay “ABTS scavenging assay” (125 μM); 63.11 ± 1.22% in the assay “ABTS scavenging assay” (250 μM); 73.22 ± 0.21% in “ABTS scavenging assay” (500 μM); 82.14 ± 0.19% in “ABTS scavenging assay” (1000 μM).
`O=C1c2ccccc2C(=O)N1c1ccc(C(F)(F)F)cc1` [compound 1, 2-(4-(trifluoromethyl)phenyl)isoindoline-1,3-dione]: the “% DPPH scavenging mean ± SEM” value came to 30.21 ± 0.17% in assay [1] (31.25 μM); 52.16 ± 0.15% in assay [1] (125 μM); 67.85 ± 0.18% in assay [1] (250 μM); 76.65 ± 0.30% in assay [1] (500 μM); 85.87 ± 0.23% in assay [1] (1000 μM). Moreover, the IC50 in assay [1] was found to be 105 µM; in “ABTS scavenging assay” it was 205 µM; in assay [2], 10 µM; in assay [3], 80 µM. Moreover, the “% ABTS scavenging mean ± SEM” value in “ABTS scavenging assay” (31.25 μM) turned out to be 11.47 ± 0.54%; in “ABTS scavenging assay” (62.5 μM), 28.21 ± 0.32%; in the assay “ABTS scavenging assay” (125 μM), 42.10 ± 1.11%; in “ABTS scavenging assay” (250 μM), 49.72 ± 0.72%; in “ABTS scavenging assay” (500 μM) it was 66.65 ± 0.61%; in “ABTS scavenging assay” (1000 μM) it was 70.55 ± 0.32%. The values for the inhibition at 31.25 µM in assay [2] and in assay [3] were 55.68 ± 0.52% and 41.39 ± 0.07%, respectively. Also, the inhibition at 62.5 µM turned out to be 61.77 ± 0.49% in assay [2] and 47.29 ± 0.12% in assay [3]. In addition, the inhibition at 125 µM was 77.4 ± 0.9% in assay [2] and 54.29 ± 0.19% in assay [3]. The inhibition at 250 µM worked out at 84.4 ± 1.39% in assay [2] and 61.76 ± 0.49% in assay [3]. Further, the inhibition at 500 µM in assay [2] was found to be 81.44 ± 0.29%; in assay [3] it was 67.4 ± 0.89%. Further, the inhibition at 1000 µM in assay [2] was found to be 98.51 ± 0.65%; in assay [3], 75.4 ± 1.39%. Further, in assay [4] (10 and 30 mg/kg plus scopolamine), the “Y-maze spontaneous alternation vs scopolamine group” value is recorded as “significant increase”. Also, the “NORT long-term memory: % discrimination index” value in assay [5] (setting [6]) and in assay [5] (setting [8]) was “significantly higher” each time. In addition, the “NORT short-term memory: exploration of novel vs familiar object in test phase” value in assay [5] (setting [7]) is given as “statistically not significant”. Also, in assay [5] (setting [8]), the “NORT short-term memory: % discrimination index vs scopolamine alone” value is given as “significantly greater; also recorded: significantly higher”.
`O=C1c2ccccc2C(=O)N1c1ccc(Br)cc1` [compound 2, 2-(4-bromophenyl)isoindoline-1,3-dione]: the “% DPPH scavenging mean ± SEM” value in assay [1] (31.25 μM) turned out to be 15.21 ± 0.19%; in assay [1] (125 μM) it was 40.16 ± 0.14%; in assay [1] (250 μM) it was 47.85 ± 0.17%; in assay [1] (500 μM), 56.65 ± 0.30%; in assay [1] (1000 μM), 69.87 ± 0.23%. Moreover, the IC50 in assay [1] was 340 µM; in the assay “ABTS scavenging assay”, 350 µM; in assay [2] it was 140 µM; in assay [3] it was 50 µM. Besides, the “% ABTS scavenging mean ± SEM” value was 10.47 ± 0.25% in the assay “ABTS scavenging assay” (31.25 μM); 22.12 ± 0.32% in the assay “ABTS scavenging assay” (62.5 μM); 34.11 ± 1.21% in the assay “ABTS scavenging assay” (125 μM); 41.72 ± 0.81% in the assay “ABTS scavenging assay” (250 μM); 57.76 ± 0.75% in the assay “ABTS scavenging assay” (500 μM); 62.57 ± 0.50% in the assay “ABTS scavenging assay” (1000 μM). Also, the inhibition at 31.25 µM worked out at 38.36 ± 0.22% in assay [2] and 45.45 ± 0.22% in assay [3]. Besides, the inhibition at 62.5 µM was found to be 41.35 ± 0.13% in assay [2] and 51.34 ± 0.03% in assay [3]. Moreover, the figures for the inhibition at 125 µM in assay [2] and in assay [3] were 47.14 ± 0.09% and 56.28 ± 0.03%, respectively. The inhibition at 250 µM in assay [2] came out at 54.33 ± 0.22%; in assay [3] it was 64.36 ± 0.03%. Further, the inhibition at 500 µM in assay [2] was 61.1 ± 1.95%; in assay [3], 71.25 ± 0.12%. Also, the values for the inhibition at 1000 µM in assay [2] and in assay [3] were 66.7 ± 5.14% and 78.2 ± 0.07%, respectively. The “NORT short-term memory: exploration of novel vs familiar object in test phase” value in assay [5] (setting [7]) is “did not exert a significant effect”.
For `Cc1ccc(N2C(=O)c3ccccc3C2=O)c(C)c1` [compound 3, 2-(2,4-dimethylphenyl)isoindoline-1,3-dione], the “% DPPH scavenging mean ± SEM” value in assay [1] (31.25 μM) was determined as 25.21 ± 0.15%; in assay [1] (125 μM) it was 40.16 ± 0.15%; in assay [1] (250 μM), 55.85 ± 0.18%; in assay [1] (500 μM), 77.65 ± 0.31%; in assay [1] (1000 μM), 80.87 ± 0.25%. In addition, the IC50 came to 150 µM in assay [1], 220 µM in “ABTS scavenging assay”, 18 µM in assay [2] and 11 µM in assay [3]. The “% ABTS scavenging mean ± SEM” value in the assay “ABTS scavenging assay” (31.25 μM) is recorded as 18.47 ± 0.83%; in “ABTS scavenging assay” (62.5 μM) it was 35.22 ± 0.50%; in the assay “ABTS scavenging assay” (125 μM), 46.11 ± 1.21%; in “ABTS scavenging assay” (250 μM), 54.72 ± 0.80%; in the assay “ABTS scavenging assay” (500 μM) it was 68.76 ± 0.72%; in “ABTS scavenging assay” (1000 μM) it was 73.57 ± 0.41%. Also, in assay [2] (1000 μM, n = 3), the “% AChE inhibition mean ± SEM” value came to 95.24 ± 0.12%. Further, the inhibition at 31.25 µM amounted to 65.2 ± 0.75% in assay [2] and 59.49 ± 0.11% in assay [3]. Besides, the inhibition at 62.5 µM was determined as 52.5 ± 0.92% in assay [2] and 63.41 ± 0.14% in assay [3]. Moreover, the results for the inhibition at 125 µM in assay [2] and in assay [3] were 77.32 ± 0.21% and 69.37 ± 0.02%, respectively. Besides, the inhibition at 250 µM is 84.18 ± 0.1% in assay [2] and 75.65 ± 0.03% in assay [3]. Besides, the inhibition at 500 µM in assay [2] worked out at 91.47 ± 0.26%; in assay [3] it was 82.4 ± 0.06%. For the same molecule, the inhibition at 1000 µM in assay [2] stood at 95.7 ± 0.12%; in assay [3], 87.29 ± 0.03%. In assay [5] (setting [6]), the “NORT short-term memory: % discrimination index vs scopolamine alone” value is “significantly higher”. Further, the “NORT long-term memory: % discrimination index” value in assay [5] (setting [8]) is reported as “significantly higher”.
As for `COc1cc2c(cc1OC)C(=O)C(CC1CCN(Cc3ccccc3)CC1)C2` (stereo not shown) [donepezil, reference compound], in assay [3], the inhibition at 31.25 µM worked out at 69.31 ± 0.06%, the inhibition at 62.5 µM is 74.42 ± 0.06%, the inhibition at 125 µM was 78.39 ± 0.06% and the inhibition at 250 µM was 82.49 ± 0.08%. In addition, in assay [3], the inhibition at 500 µM was 86.42 ± 0.11% and the inhibition at 1000 µM came out at 91.29 ± 0.06%. Also, the “Y-maze spontaneous alteration (% alteration)” value in assay [4] (donepezil 2 mg/kg plus scopolamine, n = 8) came to 83.83 ± 2.64. Further, in assay [5] (donepezil 2 mg/kg plus scopolamine 1 mg/kg), the “NORT short-term memory: exploration of novel vs familiar object in test phase” value was “statistically not significant”.
